According to US12570656B2, “Purine compounds for treating disorders” (MARVEL BIOTECHNOLOGY, priority 2020, dated 2026):
“And” between values parts separate entries of the source, which are not always exact repeats. Equal values may be shown once. Read-outs that look alike come from different tables or passages of the source.

What was measured:
[1] = Brain pharmacokinetics and brain/plasma ratio in male CD-1 mice (1 mg/kg i.v.); format: in vivo; conditions: for Brain concentration / Brain/plasma concentration ratio / Kp at 5 min / Kp at 0.25 h / Kp at 0.5 h / Kp at 8 h / concentration at 5 min / concentration at 0.25 h / concentration at 0.5 h / concentration at 1 h / concentration at 2 h / concentration at 4 h / concentration at 6 h / concentration at 8 h / Kp at 1 h / Kp at 2 h / Kp at 4 h / Kp at 6 h: 1 mg/kg bolus i.v.; for Brain/plasma concentration ratio: listed as 1a; for Kp at 5 min / Kp at 0.25 h / Kp at 0.5 h / Kp at 8 h: brain and plasma; for concentration at 5 min / concentration at 0.25 h / concentration at 0.5 h / concentration at 1 h / concentration at 2 h / concentration at 4 h / concentration at 6 h / concentration at 8 h: intravenous
Experimental: (§1) Male CD-1 mice were given either bolus 1 mg/kg i.v. or 3 mg/kg p.o. of the indicated compounds and plasma or brain concentrations were measured.
(§2) Where: • C0 concentration extrapolated to time zero following an i.v. dose • tmax time at which maximum concentration is observed • Cmax maximum observed concentration • Apparent t1/2 apparent terminal half-life • AUC0-tlast area under the concentration vs time curve from time 0 to the time of the last measurable concentration • AUC0-inf area under the concentration vs time curve from time 0 to infinity • CL systemic clearance • MRT0-inf mean residence time from time zero to infinity • Vss steady-state volume of distribution • F oral bioavailability=(Dose^iv*AUC^po)/(Dose^po*AUC^iv)*100

[2] = Plasma pharmacokinetics in male CD-1 mice (1 mg/kg i.v. or 3 mg/kg p.o.); conditions: CD-1, mouse, in vivo
Experimental: as §1, §2

ADORA2A = ADORA2A (Homo sapiens, UniProt P29274); test: GPCR screening, calcium flux (calcium mobilization), antagonist format; format: cell-based
Experimental: To ascertain whether the compounds are suitable A2aR antagonists, the compounds of formulae I, II, III, and IV were subjected to GPCR screening using A2aR as the target. The screening was done using the GPCR Screening and Profiling Services by Eurofins DiscoverX Corporation.
The compounds of formulae I, II, III, and IV were screened for GPCR activity using A2aR as the target.
Cell lines were expanded from freezer stocks according to standard procedures. Cells were seeded in a total volume of 20 μL into black-walled, clear-bottom, Poly-D-lysine coated 384-well microplates and incubated at 37° C. for the appropriate time prior to testing.
Assays were performed in 1× Dye Loading Buffer consisting of 1× Dye, 1× Additive A and 2.5 mM Probenecid in HBSS/20 mM Hepes. Probenicid was prepared fresh. Cells were loaded with dye prior to testing. Media was aspirated from cells and replaced with 20 μL Dye Loading Buffer. Cells were incubated for 30-60 minutes at 37° C.
For antagonist determination, cells were pre-incubated with sample followed by agonist challenge at the EC80 concentration. Intermediate dilution of sample stocks was performed to generate 3× sample in assay buffer. After dye loading, cells were removed from the incubator and 10 μL 3× sample was added. Cells were incubated for 30 minutes at room temperature in the dark to equilibrate plate temperature. Vehicle concentration was 1%. Compound antagonist activity was measured on a FLIPR Tetra (MDS). Calcium mobilization was monitored for 2 minutes and 10 μL EC80 agonist in HBSS/20 mM Hepes was added to the cells 5 seconds into the assay.
For antagonist and negative allosteric modulation mode assays, percentage inhibition is calculated using the following formula: % Inhibition=100%×(1−(mean RFU of test sample−mean RFU of vehicle control)/(mean RFU of EC80 control−mean RFU of vehicle control)).
When the calcium was released, the fluorescence of the dye was increased and the increase was measured in real-time.
FIGS. 1 to 6 show percent reacted (Y) versus concentration in μM (X). Compounds were tested in antagonist mode with the requested GPCR Biosensor Assay. For the antagonist assay, data was normalized to the maximal and minimal response observed in the presence of EC80 ligand and vehicle.

[3] = male, CD-1, mouse, iv, brain, i.v. 1 mg/kg

Sequence of ADORA2A (P29274 whole entry): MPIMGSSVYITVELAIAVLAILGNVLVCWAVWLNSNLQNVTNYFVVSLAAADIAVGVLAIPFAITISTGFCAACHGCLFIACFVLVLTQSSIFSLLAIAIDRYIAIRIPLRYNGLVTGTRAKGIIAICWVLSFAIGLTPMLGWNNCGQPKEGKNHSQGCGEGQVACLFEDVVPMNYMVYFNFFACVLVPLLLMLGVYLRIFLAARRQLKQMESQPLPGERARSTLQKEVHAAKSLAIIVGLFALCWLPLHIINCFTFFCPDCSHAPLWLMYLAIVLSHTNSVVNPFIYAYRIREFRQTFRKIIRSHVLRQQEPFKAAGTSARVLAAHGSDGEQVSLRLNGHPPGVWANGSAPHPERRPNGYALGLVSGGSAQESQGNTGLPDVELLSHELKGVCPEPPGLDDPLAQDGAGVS

Brain concentration ([1]; 5 min, individual animals 1-3): 851 ng/g and 682 ng/g
Brain/plasma concentration ratio ([1]; 5 min, individual animals 1-3): 0.867 and 0.751
Brain concentration ([1]; 0.25 h, individual animals 1-3): 426 ng/g and 665 ng/g
Brain/plasma concentration ratio ([1]; 0.25 h, individual animals 1-3): 0.789 and 0.795
Brain concentration ([1]; 0.5 h, individual animals 1-3): 282 ng/g and 381 ng/g
Brain/plasma concentration ratio ([1]; 0.5 h, individual animals 1-3): 0.535 and 0.779
Brain concentration ([1]; 1 h, individual animals 1-3): 318 ng/g and 175 ng/g
Brain/plasma concentration ratio ([1]; 1 h, individual animals 1-3): 0.763 and 0.550
Brain concentration ([1]; 2 h, individual animals 1-3): 195 ng/g and 185 ng/g
Brain/plasma concentration ratio ([1]; 2 h, individual animals 1-3): 0.739 and 0.661
Brain concentration ([1]; 4 h, individual animals 1-3): 158 ng/g and 198 ng/g
Brain/plasma concentration ratio ([1]; 4 h, individual animals 1-3): 0.745 and 0.783
Brain concentration ([1]; 6 h, individual animals 1-3): 138 ng/g and 122 ng/g
Brain/plasma concentration ratio ([1]; 6 h, individual animals 1-3): 0.683 and 0.758
Brain concentration ([1]; 8 h, individual animals 1-3): 118 ng/g and 114 ng/g
Brain/plasma concentration ratio ([1]; 8 h, individual animals 1-3): 0.771 and 0.809
AUC0-tlast ([1]; brain, i.v. 1 mg/kg): 1,447 h*ng/g
AUC(0-inf) ([1]; brain, i.v. 1 mg/kg): 2807^a h*ng/g
Kp at 5 min ([1]; male, CD-1, mouse, iv, 1 mg/kg, 5 min, individual animals 1-3, read-out: Brain/plasma concentration ratio): 0.757
Kp at 5 min ([1]; male, CD-1, mouse, iv, 1 mg/kg, 5 min, read-out: Brain/plasma concentration ratio, Mean): 0.792
Kp at 0.25 h ([1]; male, CD-1, mouse, iv, 1 mg/kg, 0.25 h, individual animals 1-3, read-out: Brain/plasma concentration ratio): 0.635
Kp at 0.25 h ([1]; male, CD-1, mouse, iv, 1 mg/kg, 0.25 h, read-out: Brain/plasma concentration ratio, Mean): 0.74
Kp at 0.5 h ([1]; male, CD-1, mouse, iv, 1 mg/kg, 0.5 h, individual animals 1-3, read-out: Brain/plasma concentration ratio): 0.731
Kp at 0.5 h ([1]; male, CD-1, mouse, iv, 1 mg/kg, 0.5 h, read-out: Brain/plasma concentration ratio, Mean): 0.682
Kp at 8 h ([1]; male, CD-1, mouse, iv, 1 mg/kg, 8 h, individual animals 1-3, read-out: Brain/plasma concentration ratio): 0.902
Kp at 8 h ([1]; male, CD-1, mouse, iv, 1 mg/kg, 8 h, read-out: Brain/plasma concentration ratio, Mean): 0.827
concentration at 5 min ([1]; male, CD-1, mouse, brain, 1 mg/kg, 5 min, individual animals 1-3, read-out: Brain concentration): 818 ng/g
concentration at 5 min ([1]; male, CD-1, mouse, brain, 1 mg/kg, 5 min, read-out: Brain concentration, Mean): 784 ng/g
concentration at 0.25 h ([1]; male, CD-1, mouse, brain, 1 mg/kg, 0.25 h, individual animals 1-3, read-out: Brain concentration): 373 ng/g
concentration at 0.25 h ([1]; male, CD-1, mouse, brain, 1 mg/kg, 0.25 h, read-out: Brain concentration, Mean): 488 ng/g
concentration at 0.5 h ([1]; male, CD-1, mouse, brain, 1 mg/kg, 0.5 h, individual animals 1-3, read-out: Brain concentration): 377 ng/g
concentration at 0.5 h ([1]; male, CD-1, mouse, brain, 1 mg/kg, 0.5 h, read-out: Brain concentration, Mean): 347 ng/g
concentration at 1 h ([1]; male, CD-1, mouse, brain, 1 mg/kg, 1 h, individual animals 1-3, read-out: Brain concentration): 269 ng/g
concentration at 1 h ([1]; male, CD-1, mouse, brain, 1 mg/kg, 1 h, read-out: Brain concentration, Mean): 254 ng/g
concentration at 2 h ([1]; male, CD-1, mouse, brain, 1 mg/kg, 2 h, individual animals 1-3, read-out: Brain concentration): 159 ng/g
concentration at 2 h ([1]; male, CD-1, mouse, brain, 1 mg/kg, 2 h, read-out: Brain concentration, Mean): 180 ng/g
concentration at 4 h ([1]; male, CD-1, mouse, brain, 1 mg/kg, 4 h, individual animals 1-3, read-out: Brain concentration): 120 ng/g
concentration at 4 h ([1]; male, CD-1, mouse, brain, 1 mg/kg, 4 h, read-out: Brain concentration, Mean): 159 ng/g
concentration at 6 h ([1]; male, CD-1, mouse, brain, 1 mg/kg, 6 h, individual animals 1-3, read-out: Brain concentration): 91.2 ng/g
concentration at 6 h ([1]; male, CD-1, mouse, brain, 1 mg/kg, 6 h, read-out: Brain concentration, Mean): 117 ng/g
concentration at 8 h ([1]; male, CD-1, mouse, brain, 1 mg/kg, 8 h, individual animals 1-3, read-out: Brain concentration): 110 ng/g
concentration at 8 h ([1]; male, CD-1, mouse, brain, 1 mg/kg, 8 h, read-out: Brain concentration, Mean): 114 ng/g
Kp at 1 h ([1]; male, CD-1, mouse, brain/plasma, iv, 1 mg/kg, 1 h, individual animals 1-3, read-out: Brain/plasma concentration ratio): 0.714
Kp at 1 h ([1]; male, CD-1, mouse, brain/plasma, iv, 1 mg/kg, 1 h, read-out: Brain/plasma concentration ratio, Mean): 0.675
Kp at 2 h ([1]; male, CD-1, mouse, brain/plasma, iv, 1 mg/kg, 2 h, individual animals 1-3, read-out: Brain/plasma concentration ratio): 0.572
Kp at 2 h ([1]; male, CD-1, mouse, brain/plasma, iv, 1 mg/kg, 2 h, read-out: Brain/plasma concentration ratio, Mean): 0.657
Kp at 4 h ([1]; male, CD-1, mouse, brain/plasma, iv, 1 mg/kg, 4 h, individual animals 1-3, read-out: Brain/plasma concentration ratio): 0.8
Kp at 4 h ([1]; male, CD-1, mouse, brain/plasma, iv, 1 mg/kg, 4 h, read-out: Brain/plasma concentration ratio, Mean): 0.776
Kp at 6 h ([1]; male, CD-1, mouse, brain/plasma, iv, 1 mg/kg, 6 h, individual animals 1-3, read-out: Brain/plasma concentration ratio): 0.86
Kp at 6 h ([1]; male, CD-1, mouse, brain/plasma, iv, 1 mg/kg, 6 h, read-out: Brain/plasma concentration ratio, Mean): 0.767
Kp ([1]; male, CD-1, mouse, brain/plasma, iv, 1 mg/kg, i.v. 1 mg/kg, read-out: Brain/plasma AUC0-tlast ratio): 0.71
Cmax [1, 3]: 784 ng/g
Tmax [1, 3]: 5 min
half-life ([1]; male, CD-1, mouse, iv, brain, i.v. 1 mg/kg, read-out: Apparent t1/2 (converted)): 8.27 h
MRT inf ([1]; male, CD-1, mouse, iv, brain, i.v. 1 mg/kg, read-out: MRT0-inf): 11.2 h
bioavailability [2]: 76%
AUC(0-inf) ([2]; iv, 1 mg/kg): 3240 ng·h/mL
AUC(0-t) ([2]; iv, 1 mg/kg): 2040 ng·h/mL
C0 ([2]; iv, 1 mg/kg): 1220 ng/mL
Cmax ([2]; iv, 1 mg/kg): 990 ng/mL
MRT inf ([2]; iv, 1 mg/kg): 8.02 h
Tmax ([2]; iv, 1 mg/kg): 0.0833 h
Vd ([2]; iv, 1 mg/kg): 2.47 L/kg
clearance ([2]; iv, 1 mg/kg): 5.13 mL/min/kg
half-life ([2]; iv, 1 mg/kg): 6 h
AUC(0-inf) ([2]; po, 3 mg/kg): 5090 ng·h/mL
AUC(0-t) ([2]; po, 3 mg/kg): 4650 ng·h/mL
Cmax ([2]; po, 3 mg/kg): 424 ng/mL
MRT inf ([2]; po, 3 mg/kg): 11.1 h
Tmax ([2]; po, 3 mg/kg): 4 h
half-life ([2]; po, 3 mg/kg): 6.52 h
Curve Bottom (ADORA2A; Antagonist format): 1.23
Curve Top (ADORA2A; Antagonist format): 99
Hill (ADORA2A; Antagonist format): 1.4103
IC50 (ADORA2A; Antagonist format, EC80 0.021 μM NECA, read-out: RC50 (IC50)): 88.5 nM
Emax (ADORA2A; Antagonist format, read-out: Max Response): 98.1%
IC50 (ADORA2A; text to FIGS. 1-4, 6, antagonist mode, read-out: half maximal inhibitory concentration (IC50)): 88.5 nM and 75.5 nM
SMILES: CCn1c(=O)c2c(nc(/C=C/c3ccc(OC(F)F)c(OC(F)F)c3)n2C)n(CC)c1=O [Formula I, 8-[(E)-2-[3,4-bis(difluoromethoxy)phenyl]vinyl]-1,3-diethyl-7-methyl-purine-2,6-dione;hydrofluoride]
